Series [1] is described as follows: Stability in human plasma. Particulars: after 4 hours, 37° C.
Procedure: (§1) In order to evaluate the stability to circulating enzymes, test compounds were incubated in human and rat plasma at 37° C. in a thermostated oscillating bath. Each test compound was incubated at μM concentration (50 μM when the samples were analysed by UV/HPLC, 1 or 2 μM when the samples were analysed by LC-MS/MS) for 0, 15, 30 minutes and 1, 2 and 4 hours. The reaction was stopped placing samples on ice bath and adding acidified acetonitrile. After centrifugation (10 minutes at 14000 rpm) an aliquot of the supernatant was diluted with water, filtered with 0.45 μm regenerated cellulose syringe filters and injected in HPLC-UV or in LC-MS/MS. The percentage of the remaining amount at the various incubation times with respect to the initial amount were calculated. The half-life in plasma was also calculated.
The target of series [2] is recombinant human HDAC1 (Homo sapiens (Human), UniProt Q13547). Put plainly: Enzymatic screening, HDAC1 inhibition (fluorogenic FdL_G substrate). The series is classed as biochemical. An outline of the steps: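 Recombinant human HDAC1 inhibition was measured fluorometrically using the FLUOR DE LYS-Green (FdL_G) substrate. Compounds at 8 doses (1% DMSO final) in Tris-HCl pH 8 buffer with NaCl, Tween-20 and glycerol were preincubated in triplicate with enzyme and 1 mg/mL BSA, then given substrate. Developer I plus 2 μM TSA was added, and fluorescence read after 25 minutes in the dark.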
Chain of recombinant human HDAC1 (Q13547 whole entry): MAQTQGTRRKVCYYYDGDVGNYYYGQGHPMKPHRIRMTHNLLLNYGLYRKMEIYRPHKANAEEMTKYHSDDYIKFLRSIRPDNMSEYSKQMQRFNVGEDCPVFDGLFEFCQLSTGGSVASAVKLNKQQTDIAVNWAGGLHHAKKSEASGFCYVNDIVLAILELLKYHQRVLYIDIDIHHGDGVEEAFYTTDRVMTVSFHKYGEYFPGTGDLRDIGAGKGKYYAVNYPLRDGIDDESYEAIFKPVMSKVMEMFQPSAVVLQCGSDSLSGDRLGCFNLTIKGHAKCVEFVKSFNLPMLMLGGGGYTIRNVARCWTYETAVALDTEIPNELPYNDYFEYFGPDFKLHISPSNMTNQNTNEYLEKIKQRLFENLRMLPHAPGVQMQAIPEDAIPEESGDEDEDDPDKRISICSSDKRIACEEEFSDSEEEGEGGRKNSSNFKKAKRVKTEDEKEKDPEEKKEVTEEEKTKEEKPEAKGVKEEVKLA

For series [3], the system named is α-tubulin acetylation in 697 cell line. Put plainly: In vitro α-tubulin acetylation in 697 cell line (ELISA). The series is classed as cell-based. Particulars: 16 hours, read-out: fold increase @ 1 uM TubAc (ratio of acetylated tubulin and total tubulin towards control). Here is the method: The in vitro α-tubulin acetylation determination was evaluated on B 697 promyelocytic cell line.
The test molecules were diluted from 20 mM stock solution in DMSO with RPMI 10% FCS+0.01% DMSO medium at 20× concentration compared to the final concentration, added to the cells (15×10^6 cells in a total volume of 30 mL in RPMI medium 10% FCS+0.01% DMSO) to obtain the final concentrations of 1000, 333, 111, 37 nM and incubated at 37° C., 5% CO2 for 16 hours.
At the end of the incubation period, 5×10^6 cells were taken from each sample, centrifuged for 5 minutes at 1100 rpm and washed in 0.9% NaCl at 4° C. The resulting pellet was lysed by treating at 4° C. for 30 minutes with 150 μl of Complete Lysis-M buffer containing protease inhibitors (Complete Lysis-M Roche+Complete Tablets, Mini Easypack, cat: 4719956001) and phosphatase inhibitor cocktails (PhosStop Easypack, Roche, cat: 4906837001), then centrifuged 10 minutes at 14,000 rpm (20817×g). 0.3 μg of supernatant (total protein extract) were diluted in 100 μl of 1×PBS and immobilized in Maxisorp F96 NUN-IMMUNO Plate (Nunc MaxiSorp flat-bottom, Nunc, cat: 442404) at room temperature overnight. Plates were washed twice with Wash Buffer (PBS1×+0.005% tween 20) and saturated for 1 hour at room temperature with 300 μL of 1×PBS containing 10% FCS. After washing twice with Wash Buffer, the plates were incubated for two hours at room temperature in the presence of anti-acetylated-α-tubulin antibody (Monoclonal Anti-acetylated-tubulin clone 6-11B-1, mouse ascites fluid, Sigma, cat: T6793), 100 μl/well diluted 1:1000 in 1×PBS containing 10% FCS) or with total anti-α-tubulin antibody (Monoclonal Anti-alpha-tubulin produced in mouse, Sigma, cat: T6074). Following washing of the pates 5 times with Wash Buffer the secondary antibody conjugated with the enzyme HRP (Goat anti-Mouse IgG, IgM, IgA (H+L), Thermo Fisher Scientific, cat: A10668), diluted 1:1000 in 1×PBS+10% FBS was added at the volume of 100 μl/well.
After washing 4 times, 100 μl/well of TMB substrate kit was added for 10 minutes at room temperature in the dark. The reaction was stopped by adding 50 μl of 2N H2SO4. The plates were read at Multiskan Spectrum spectrophotometer at a wavelength of 450 nm.
The degree of acetylation was calculated by dividing the absorbance obtained for acetylated α-tubulin by the absorbance of total tubulin.
The results of tubulin acetylation, expressed as fold increase of ratio of acetylated α-tubulin/total α-tubulin, of each sample relative to the control sample (untreated) are summarized in table 6.
Background: An ELISA detects its analyte on a solid surface through an enzyme-linked reagent.

Series [4] is described as follows: Stability to Phase I metabolism in rat S9 liver fraction. Particulars: after 90 minutes, 37° C.
Series [5] in a line: Stability to Phase I metabolism in human S9 liver fraction. Particulars: after 90 minutes, 37° C.
Procedure: Test compounds were incubated in rat and human liver S9 fraction at 37° C. up to 90 minutes in order to evaluate their stability to Phase I metabolism by hepatic enzymes. Each test compound was incubated at μM concentration (50 μM when the samples were analysed by UV/HPLC, 1 or 2 μM when the samples were analysed by LC-MS/MS) with S9 fraction (protein content 2 mg/m L) in 100 mM phosphate buffer (pH 7.4), 3.3 mM MgCl2 and 1.3 mM NADPH for 0, 10, 30, 60 and 90 minutes at 37° C. in a thermostated oscillating bath. The reaction was stopped placing samples on ice bath and adding acidified acetonitrile. After centrifugation (10 minutes at 14000 rpm) an aliquot of the supernatant was diluted with water, filtered with 0.45 μm regenerated cellulose syringe filters and injected in HPLC-UV or in LC-MS/MS. The percentage of the remaining amount at the various incubation times with respect to the initial amount were calculated.
Series [6] deals with recombinant human HDAC6 (Homo sapiens (Human), UniProt Q9UBN7). In words: Enzymatic screening, HDAC6 inhibition (fluorogenic FdL_G substrate). The series is classed as biochemical. The gist of the method: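 Enzyme was preincubated with compound (8 doses, triplicate, 1% DMSO) in 25 mM Tris-HCl pH 8, 130 mM NaCl, 0.05% Tween-20, 10% glycerol, with BSA. A FLUOR DE LYS-Green substrate was then added, and fluorescence was read after developer plus 2 μM TSA.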
Chain of recombinant human HDAC6 (Q9UBN7 whole entry): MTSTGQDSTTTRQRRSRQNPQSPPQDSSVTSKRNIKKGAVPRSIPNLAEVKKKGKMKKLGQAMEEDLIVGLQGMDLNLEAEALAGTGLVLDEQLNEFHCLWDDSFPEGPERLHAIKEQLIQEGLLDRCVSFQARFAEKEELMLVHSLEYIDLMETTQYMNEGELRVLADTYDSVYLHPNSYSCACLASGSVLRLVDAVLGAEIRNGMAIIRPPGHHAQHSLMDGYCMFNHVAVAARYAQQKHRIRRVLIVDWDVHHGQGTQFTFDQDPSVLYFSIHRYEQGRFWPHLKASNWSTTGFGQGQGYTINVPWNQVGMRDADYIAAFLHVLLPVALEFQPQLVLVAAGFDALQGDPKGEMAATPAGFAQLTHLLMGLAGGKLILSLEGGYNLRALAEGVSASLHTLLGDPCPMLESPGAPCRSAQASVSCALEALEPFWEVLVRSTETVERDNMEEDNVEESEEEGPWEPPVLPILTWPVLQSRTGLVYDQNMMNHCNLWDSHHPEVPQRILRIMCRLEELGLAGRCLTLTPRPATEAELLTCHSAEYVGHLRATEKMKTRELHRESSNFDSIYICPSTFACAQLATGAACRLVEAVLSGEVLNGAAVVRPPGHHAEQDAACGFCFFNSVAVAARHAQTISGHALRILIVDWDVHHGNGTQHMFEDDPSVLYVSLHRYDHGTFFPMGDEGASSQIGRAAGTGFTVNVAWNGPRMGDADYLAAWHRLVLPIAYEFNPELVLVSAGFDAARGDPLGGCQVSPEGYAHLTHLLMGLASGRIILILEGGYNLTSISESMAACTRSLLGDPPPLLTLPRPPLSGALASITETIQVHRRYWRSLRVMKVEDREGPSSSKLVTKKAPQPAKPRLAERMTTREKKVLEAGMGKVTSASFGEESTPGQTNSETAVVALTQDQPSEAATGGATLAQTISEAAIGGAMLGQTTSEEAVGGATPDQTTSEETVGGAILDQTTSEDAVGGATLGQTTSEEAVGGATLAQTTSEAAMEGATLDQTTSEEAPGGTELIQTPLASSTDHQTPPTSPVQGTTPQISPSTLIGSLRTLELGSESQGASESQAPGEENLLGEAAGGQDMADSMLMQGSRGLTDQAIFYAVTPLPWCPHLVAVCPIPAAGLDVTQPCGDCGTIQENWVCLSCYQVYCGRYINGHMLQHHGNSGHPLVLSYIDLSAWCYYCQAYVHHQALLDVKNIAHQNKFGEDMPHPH

Series [7] can be described thus: Stability in rat plasma. Particulars: after 4 hours, 37° C.
Procedure: as §1

The record followed here is patent publication US20230286970A1, “NOVEL OXADIAZOLE-BASED SELECTIVE HDAC6 INHIBITORS” (ITALFARMACO S.P.A., priority 2020, published 2023).

pIC50: −log10 of the molar value.

Take `O=C1Nc2cc(-c3cn(Cc4ccc(-c5nnc(C(F)F)o5)cn4)nn3)ccc2NC12CCNCC2` [compound 41, 6′-(1-((5-(5-(difluoromethyl)-1,3,4-oxadiazol-2-yl)pyridin-2-yl)methyl)-1H-1,2,3-triazol-4-yl)-1′,4′-dihydro-3′H-spiro[piperidine-4,2′-quinoxalin]-3′-one]: in series [1], the “residual percentage in HUMAN PLASMA” value is given as 91%. The pIC50 (commonly the negative decadic logarithm of the IC50, by convention in mol/L) in series [2] is 3.91; in series [6], 7.72. Moreover, the fold induction at 1 µM in series [3] was 4. Also, the “residual percentage in RAT S9 FRACTION” value in series [4] is listed as 92%. Further, the “residual percentage in HUMAN S9 FRACTION” value in series [5] came to 94%. Moreover, in series [7], the “residual percentage in RAT PLASMA” value was 77%.
With `C[C@H](c1ccc(-c2nnc(C(F)F)o2)cn1)n1cc(-c2ccc(N)nc2)nn1` [Compd. 32, (R)-5-(1-(1-(5-(5-(difluoromethyl)-1,3,4-oxadiazol-2-yl)pyridin-2-yl)ethyl)-1H-1,2,3-triazol-4-yl)pyridin-2-amine], in series [1], the “residual percentage in HUMAN PLASMA” value came out at 97%. Also, the figures for the pIC50 in series [2] and in series [6] were less than 3.70 and 7.85, respectively. The fold induction at 1 µM in series [3] is 31. Also, the “residual percentage in RAT S9 FRACTION” value in series [4] is listed as 91%. For the same compound, the “residual percentage in HUMAN S9 FRACTION” value in series [5] was determined as 97%. Besides, the “residual percentage in RAT PLASMA” value in series [7] is given as 67%.
With `NC(=O)c1cccc(-c2nnn(Cc3ccc(-c4nnc(C(F)F)o4)cn3)n2)c1` [compound 29, 3-(2-((5-(5-(difluoromethyl)-1,3,4-oxadiazol-2-yl)pyridin-2-yl)methyl)-2H-tetrazol-5-yl)benzamide], the fold induction at 1 µM in series [3] was found to be 15.
For `Nc1nc2ccc(-c3cn(Cc4ccc(-c5nnc(C(F)F)o5)cc4)nn3)cc2s1` [compound 14, 6-(1-(4-(5-(difluoromethyl)-1,3,4-oxadiazol-2-yl)benzyl)-1H-1,2,3-triazol-4-yl)benzo[d]thiazol-2-amine], the “residual percentage in HUMAN PLASMA” value in series [1] is listed as 72%. For the same compound, the fold induction at 1 µM in series [3] turned out to be 19. For the same compound, in series [4], the “residual percentage in RAT S9 FRACTION” value was found to be 95%. Besides, the “residual percentage in HUMAN S9 FRACTION” value in series [5] is reported as 93%. For the same compound, in series [7], the “residual percentage in RAT PLASMA” value is 83%.
Consider `CN1CCN(C(=O)Nc2cccc(-c3cn(Cc4ccc(-c5nnc(C(F)F)o5)cn4)nn3)c2)CC1` [Compd. 51, N-(3-(1-((5-(5-(difluoromethyl)-1,3,4-oxadiazol-2-yl)pyridin-2-yl)methyl)-1H-1,2,3-triazol-4-yl)phenyl)-4-methylpiperazine-1-carboxamide], for which, in series [1], the “residual percentage in HUMAN PLASMA” value was determined as 90%. Further, the figures for the pIC50 in series [2] and in series [6] were less than 3.70 and 7.66, respectively. Moreover, the fold induction at 1 µM in series [3] was determined as 26. Further, the “residual percentage in RAT S9 FRACTION” value in series [4] stood at 62%. The “residual percentage in HUMAN S9 FRACTION” value in series [5] is 90%. Also, in series [7], the “residual percentage in RAT PLASMA” value worked out at 79%.
As for `O=C1Nc2ccc(-c3cn(Cc4ccc(-c5nnc(C(F)F)o5)cn4)nn3)cc2C12CCNC2` (single isomer, unassigned) [compound 274, 5-(1-((5-(5-(difluoromethyl)-1,3,4-oxadiazol-2-yl)pyridin-2-yl)methyl)-1H-1,2,3-triazol-4-yl)spiro[indoline-3,3′-pyrrolidin]-2-one], the “residual percentage in HUMAN PLASMA” value in series [1] is on record as 83%. The pIC50 was less than 3.70 in series [2] and 7.96 in series [6]. For the same compound, the fold induction at 1 µM in series [3] worked out at 12. Further, the “residual percentage in RAT S9 FRACTION” value in series [4] is listed as 97%. Moreover, the “residual percentage in HUMAN S9 FRACTION” value in series [5] is reported as 95%. Further, in series [7], the “residual percentage in RAT PLASMA” value was found to be 83%.
For the compound `NC(=O)c1ccc(-c2nnn(Cc3ccc(-c4nnc(C(F)F)o4)cc3)n2)cc1` [compound 116, 4-(2-(4-(5-(difluoromethyl)-1,3,4-oxadiazol-2-yl)benzyl)-2H-tetrazol-5-yl)benzamide], in series [1], the “residual percentage in HUMAN PLASMA” value is 82%. The pIC50 in series [2] is less than 3.70; in series [6] it was 7.36. Besides, the fold induction at 1 µM in series [3] is 5. For the same compound, the “residual percentage in RAT S9 FRACTION” value in series [4] was determined as 71%. For the same compound, the “residual percentage in HUMAN S9 FRACTION” value in series [5] was 92%. The “residual percentage in RAT PLASMA” value in series [7] worked out at 75%.
Regarding `CNc1ccc2cc(-c3cn(Cc4ccc(-c5nnc(C(F)F)o5)cn4)nn3)ccc2n1` [compound 34, 6-(1-((5-(5-(difluoromethyl)-1,3,4-oxadiazol-2-yl)pyridin-2-yl)methyl)-1H-1,2,3-triazol-4-yl)-N-methylquinolin-2-amine], the “residual percentage in HUMAN PLASMA” value in series [1] turned out to be 95%. In addition, the results for the pIC50 in series [2] and in series [6] were less than 3.70 and 7.82, respectively. Moreover, the fold induction at 1 µM in series [3] stood at 28. Besides, in series [4], the “residual percentage in RAT S9 FRACTION” value is given as 83%. The “residual percentage in HUMAN S9 FRACTION” value in series [5] worked out at 89%. Besides, the “residual percentage in RAT PLASMA” value in series [7] stood at 69%.
With `NC(=O)c1cccc(-c2nnn(Cc3ccc(-c4nnc(C(F)F)o4)c(F)c3)n2)c1` [compound 89, 3-(2-(4-(5-(difluoromethyl)-1,3,4-oxadiazol-2-yl)-3-fluorobenzyl)-2H-tetrazol-5-yl)benzamide], the “residual percentage in HUMAN PLASMA” value in series [1] came to 81%. In addition, the pIC50 is less than 3.70 in series [2] and 7.47 in series [6]. Besides, the fold induction at 1 µM in series [3] is 8. The “residual percentage in RAT S9 FRACTION” value in series [4] is reported as 98%. Besides, the “residual percentage in HUMAN S9 FRACTION” value in series [5] is on record as 96%. In addition, the “residual percentage in RAT PLASMA” value in series [7] amounted to 82%.
`Nc1ccc(-c2cn(Cc3ccc(-c4nnc(C(F)F)o4)c(F)c3)nn2)cn1` [compound 15, 5-(1-(4-(5-(difluoromethyl)-1,3,4-oxadiazol-2-yl)-3-fluorobenzyl)-1H-1,2,3-triazol-4-yl)pyridin-2-amine]: the “residual percentage in HUMAN PLASMA” value in series [1] came out at 81%. The fold induction at 1 µM in series [3] turned out to be 16. Further, the “residual percentage in RAT S9 FRACTION” value in series [4] stood at 79%. In addition, the “residual percentage in HUMAN S9 FRACTION” value in series [5] is on record as 91%. In addition, in series [7], the “residual percentage in RAT PLASMA” value was 72%.
For `C[C@@H](c1ccc(-c2nnc(C(F)F)o2)cc1)n1cc(-c2cccc(NC(=O)N3CCOCC3)c2)nn1` (stereo in doubt) [compound 104, N-(3-(1-(1-(4-(5-(difluoromethyl)-1,3,4-oxadiazol-2-yl)phenyl)ethyl)-1H-1,2,3-triazol-4-yl)phenyl)morpholine-4-carboxamide], the “residual percentage in HUMAN PLASMA” value in series [1] was found to be 92%. The figures for the pIC50 in series [2] and in series [6] were less than 3.70 and 7.40, respectively. For the same compound, the fold induction at 1 µM in series [3] came out at 15. Besides, the “residual percentage in RAT S9 FRACTION” value in series [4] came out at 78%. Also, the “residual percentage in HUMAN S9 FRACTION” value in series [5] came out at 86%. Moreover, the “residual percentage in RAT PLASMA” value in series [7] was 87%.
For the compound `Nc1ccc(-c2cn(C(CN3CCCC3)c3ccc(-c4nnc(C(F)F)o4)cc3)nn2)cn1` (centres unmarked) [Compd. 124, 5-(1-(1-(4-(5-(difluoromethyl)-1,3,4-oxadiazol-2-yl)phenyl)-2-(pyrrolidin-1-yl)ethyl)-1H-1,2,3-triazol-4-yl)pyridin-2-amine], in series [1], the “residual percentage in HUMAN PLASMA” value was 94%. Further, the negative-log IC50 (pIC50) in series [2] is less than 3.70; in series [6] it was 7.33. In addition, in series [3], the fold induction at 1 µM stood at 13. Also, the “residual percentage in RAT S9 FRACTION” value in series [4] stood at 96%. Moreover, the “residual percentage in HUMAN S9 FRACTION” value in series [5] is 91%. For the same compound, the “residual percentage in RAT PLASMA” value in series [7] was 92%.
